Assay results reported in US8536204B2, “Amides and thioamides as pesticides” (Bayer CropScience AG, priority 2009, dated 2013).

Columns and labels:
[1] = system: larvae of the mustard beetle (Phaedon cochleariae); experiment: Phaedon test (spray treatment); type: in vivo; conditions: application rate 500 g/ha, spray on Chinese cabbage leaf slices, after 7 days
Protocol: Phaedon Test (Spray Treatment)
Solvent: • 78.0 parts by weight of acetone • 1.5 parts by weight of dimethylformamide
(§1) Emulsifier: 0.5 part by weight of alkylaryl polyglycol ether
(§2) To produce an appropriate active ingredient formulation, 1 part by weight of active ingredient is mixed with the amounts of solvent and emulsifier specified and the concentrate is diluted to the desired concentration with emulsifier-containing water.
Chinese cabbage leaf slices (Brassica pekinensis) are sprayed with an active ingredient formulation of the desired concentration and, after drying, populated with larvae of the mustard beetle (Phaedon cochleariae).
After 7 days, the efficacy in % is determined. 100% means that all beetle larvae were killed; 0% means that no beetle larvae were killed.

[2] = system: green peach aphid (Myzus persicae); experiment: Myzus test (spray treatment); type: in vivo; conditions: 144 h, application rate 500 g/ha, spray on Chinese cabbage leaf slices, after 6 days, read-out: efficacy in % (100% means that all aphids have been killed)
Protocol: Myzus Test (Spray Treatment)
Solvent: • 78 parts by weight of acetone • 1.5 parts by weight of dimethylformamide
as §1, §2
Chinese cabbage leaf slices (Brassica pekinensis) infested by all stages of the green peach aphid (Myzus persicae) are sprayed with an active ingredient formulation of the desired concentration.
After 6 days, the efficacy in % is determined. 100% means that all aphids have been killed; 0% means that no aphids have been killed.

[3] = Determination of the logP values (formic acid method) by HPLC; type: physicochemical; conditions: reversed-phase HPLC column (C 18), pH 3.4, HPLC on reversed-phase column (C 18), acidic range (pH 3.4), 55° C.; Table 1; read-out: logP (HCOOH)
Protocol: 1) Description of Method for Determining the LogP Values (Formic Acid Method)
The logP values reported in the table were determined according to EEC-Directive 79/831 Annex V.A8 by HPLC (High Performance Liquid Chromatography) on a reversed-phase column (C 18). Temperature: 55° C.
Eluents for the determination in the acidic range (pH 3.4):
Eluent A: acetonitrile+1 ml of formic acid/litre. Eluent B: water+0.9 ml of formic acid/litre.
Gradient: from 10% eluent A/90% eluent B to 95% eluent A/5% eluent B in 4.25 min.
The calibration was effected with unbranched alkan-2-ones (with 3 to 16 carbon atoms), whose logP values are known (determination of the logP values on the basis of the retention times by linear interpolation between two successive alkanones). The lambda-max values were determined with reference to the UV spectra from 200 nm to 400 nm in the maxima of the chromatographic signals.

Boophilus microplus = Boophilus microplus test (injection); type: in vivo; conditions: application rate 20 μg/animal, injected into the abdomen, after 7 days
Protocol: Boophilus Microplus Test (Injection)
Solvent: dimethyl sulphoxide
To produce an appropriate active ingredient formulation, 10 mg of active ingredient is mixed with 0.5 ml of solvent stated and the concentrate is diluted to the desired concentration with solvent. The active ingredient solution is injected into the abdomen (Boophilus microplus); the animals are transferred to dishes and stored in a climate-controlled room. The action is monitored by the laying of fertile eggs.
After 7 days, the efficacy in % is determined. 100% means that no ticks have laid fertile eggs.

| SMILES | efficacy in % (100% means that all beetle larvae were killed) [1] | pest or weed control at 500 g/ha [2] | chromatographic logP [3] | efficacy in % (100% means that no ticks have laid fertile eggs) (Boophilus microplus) |
| --- | --- | --- | --- | --- |
| O=C(NCC(F)(F)F)c1cnn(-c2cccnc2)c1 [Example 3, 1-(pyridin-3-yl)-N-(2,2,2-trifluoroethyl)-1H-pyrazole-4-carboxamide] | 100% | 100% | 1.18 |  |
| O=C(NCCF)c1cnn(-c2cccnc2)c1 [Example 9] |  | 100% | 0.56 | 100% |
